Measurements from patent publication US20130296372A1, “USE OF PRO-[…] UK-2A FOR CONTROL OF SOYBEAN RUST” (DOW AGROSCIENCES LLC, priority 2012, published 2013).

System: soybean Asian rust—Phakopsora pachyrhizi (PHAKPA)
Experiment: Efficacy on soybean rust: greenhouse soybean plants sprayed, then inoculated with spore suspension
Type: in vivo, Phakopsora pachyrhizi on soybean plants
Settings: pre-inoculation; for PHAKPA Control % 14 DAA: 14 days after application; for PHAKPA Control % 12 DAA: 12 days after application
Method: Soybean plants were inoculated with an aqueous spore suspension of the fungal pathogen (soybean Asian rust—Phakopsora pachyrhizi) at 2 h and 24 h post compound application. Additionally, infected untreated plants with sporulating lesions were placed among the test pots throughout the duration of the tests. The soybean plants were propagated from seed in a greenhouse, at a density of 3 seeds per pot containing a sandy loam. The plants were sprayed at growth stage V2 to V3 (2-3 trifoliates developed) and subsequently inoculated with the pathogen at the time intervals indicated above. Following inoculation, the plants were maintained under conditions of high humidity and at 26° C. to support spore germination and host leaf colonization. Assessments were made 12-15 days after inoculation. Aliquots of a 10% SC formulation of Compound I were diluted into water to achieve spray solutions containing 25, 100 and 400 ppm of the active ingredient. The spray solutions were also supplemented with either Trycol 5941 or one of several alternative adjuvant chemistries. Treatment solutions were sprayed to run-off using a hand held sprayer.

[1] = 400 ppm Compound I + Trycol 5941 0.2 % v/v

How did the “PHAKPA Control % 14 DAA” value (25 ppm Compound I + Trycol 5941 0.2 % v/v) turn out when `COc1ccnc(C(=O)N[C@H]2COC(=O)[C@H](Cc3ccccc3)[C@@H](OC(=O)C(C)C)[C@H](C)OC2=O)c1OCOC(=O)C(C)C` [Compound I] was run?
Its value is “D (1-25)”.

What about the “PHAKPA Control % 14 DAA” value (100 ppm Compound I + Trycol 5941 0.2 % v/v) of the same molecule?
Its value is “C (26-50)”.

What about the “PHAKPA Control % 12 DAA” value (400 ppm Compound I + Agbem 0.2 % v/v) of the same molecule?
Its value is “B (51-75)”.

And the “PHAKPA Control % 12 DAA” value (400 ppm Compound I + Agral 0.2 % v/v)?
Its value is “B (51-75)”.

And the “PHAKPA Control % 12 DAA” value (400 ppm Compound I + Aterbane 0.2 % v/v)?
Its value is “B (51-75)”.

What about the “PHAKPA Control % 12 DAA” value (400 ppm Compound I + Joint 0.2 % v/v) of the same molecule?
The value was “A (76-100)”.

What about the “PHAKPA Control % 12 DAA” value (400 ppm Compound I + Nimbus 0.2 % v/v) of the same molecule?
The value was “A (76-100)”.

And the “PHAKPA Control % 12 DAA” value [1]?
The value was “B (51-75)”.

And the “PHAKPA Control % 14 DAA” value [1]?
The value was “A (76-100)”.

And the “PHAKPA Control % 12 DAA” value (400 ppm Compound I + Vegetable Oil 0.2 % v/v)?
The value was “A (76-100)”.
